Patent US11638702B2, “Glyceryl 3-hydroxybutyrates for traumatic brain injury” (NeuroEnerygy Ventures, Inc., priority 2017, dated 2023)

Assays:
[1] = system: traumatic brain injury (TBI) patients; assay: Oral glyceryl tris(3-hydroxybutyrate) with standard non-restricted diet in individual TBI patients (case examples); assay type: in vivo, human; settings: for Clinical status at follow-up: day 7 of regimen
Procedure: A 60 kg person presents with TBI due to a minor car accident. On initial examination, within 1 hour of the accident, moderate TBI is determined by EMT at the scene, on the basis disorientation and of the Glasgow Coma Scale (9-13). The patient is conscious, is hyperglycemic and able to orally ingest the ester. The patient is started on 0.5 g/kg/day glyceryl tris(3-hydroxybutyrate) orally in 3 divided doses (i.e., 10 g per serving 3 times a day). The patient is transported to a medical facility and allowed to ingest a standard diet lunch, having no glucogenic caloric restriction. […] The patient completes the regimen.
A 70 kg (boxer) presents with a sports injury concussion after having a history of 3 similar concussions over the past year. The past concussions are treated by standard medical practice without the use of ketogenic diet, starvation, or the esters of use in the present invention. The most recent concussive injury occurs 2 hours before the patient being brought into a hospital for treatment. The patient is immediately examined and determined to be hyperglycemic and to have a moderate concussive injury (on the basis of short term loss of consciousness, their lingering disorientation, and a Glasgow Coma Scale score of 9-13). The patient is started on 2.0 g/kg/day glyceryl tris(3-hydroxybutyrate) in three divided dose (i.e.. 46.7 g per serving 3 times a day) and permitted an ordinary standard oral diet not having glucogenic caloric restrictions for a 70 kg person. Treatment continues for 3 days.
The patient in Example 3, knowing that further concussive incidents are likely requests advice as to minimizing the effects of further concussive incidents. The patient is told to restart the glyceryl tris(3-hydroxybutyrate) regimen at least one meal period before partaking in the activity likely to result in a concussive injury. The patient has such serving at a 5 PM dinner and is in a match at 7 PM. The patient does in fact suffer a further TBI which once again is upon examination at the scene is determined to be a moderate TBI, however, the patient is euglycemic. On transport to a medical facility, the patient is re-examined and confirm that they have suffered another moderate TBI. The patient is started on 2.0 g/kg/day glyceryl tris(3-hydroxybutyrate) in three divided doses 46.7 g per serving 3 times a day) and permitted an ordinary standard oral diet not having glucogenic caloric restrictions for a 70 kg person. […] The patient is advised to continue with the glyceryl tris(3-hydroxybutyrate) regimen as in Example 3 for 6 days and return for re-evaluation. The patient maintains the regimen for 3 days instead of the recommended 6 and reports no adverse or lingering effects from the TBI.
The patients in Examples 2, 4, and 5 on re-evaluation are immediately started on the regimens referred to in Examples 1, 3, and 3 respectively for 7 days, and directed to return for re-evaluation on the 7th day of the newly started regimen. […] However, the improvement is not as complete as the patients in Examples 1 or 3.
A 30 kg child is brought to the emergency room with moderate to severe TBI (as per the Modified Glasgow Coma Scale) due to a playground fall, is hyperglycemic, is unconscious, is intubated, and begun on a regimen of 30 g twice daily of glyceryl tris(3-hydroxybutyrate) and further fed standard normal enteral diet. The regimen is continued for 7 days and re-evaluated at that time. […] The treatment is continued, with re-evaluation set for 7 days later.

[2] = system: traumatic brain injury (TBI) patients; assay: Group comparisons of TBI patients / military personnel given glyceryl tris(3-hydroxybutyrate) versus matched patients; assay type: in vivo, human
Procedure: The patients are followed up approximately 6 months, after the TBI.
Military personnel having closed TBIs due to vehicular accidents or IEDs or other battlefield causes are evaluated for the severity of their TBIs and, where glyceryl tris(3-hydroxybutyrate) is available for administration, are started on a regimen of […] in 2 or 3 divided doses for 7 days (which regimen is generally started within 2 or 3 hours of injury) and then re-evaluated at day 7 to assess whether further treatment for the TBI is warranted. These are compared with comparably injured military personnel where access to the glyceryl tris(3-hydroxybutyrate) was not available for administration within the first week after injury.
In light of Example 10, combat troops and medics associated therewith are provided with glyceryl tris(3-hydroxybutyrate) to take into the field for use in triage in the case of mild-moderate closed TBI situations.
In light of Examples 10 and 11, combat troops are routinely given a morning dose of glyceryl tris(3-hydroxybutyrate) while in combat zones in case they suffer a mild to moderate non-penetrating closed TBI. For those troops that do suffer such TBIs within 12 hours of administration, their recovery, both acutely and longer term, is improved as compared to those only receiving the glyceryl tris(3-hydroxybutyrate) administration upon injury, after being matched for injury severity. Similar comparatives between those getting variously identical regimens of glyceryl tris(3-hydroxybutyrate) post-injury other than the single prophylactic dose prior to injury, with those receiving the preinjury dose faring better than those not receiving it, and further those whose injury is closer in time to the administration (1-2 hours post administration) faring better than those being injured further in time form the administration (10-12 hours post-administration).

CC(O)CC(=O)OCC(COC(=O)CC(C)O)OC(=O)CC(C)O (stereo not drawn) [glyceryl tris(3-hydroxybutyrate)]
Disorientation ([1]; Example 1: 60 kg female, moderate TBI (Glasgow Coma Scale 9-13), 0.5 g/kg/day orally in 3 divided doses, standard diet, after 2 days): recovered from their disorientation
Clinical status at follow-up ([1]; Example 1: 60 kg female, moderate TBI, 0.5 g/kg/day orally in 3 divided doses, normal meals): fully recovered
Glycemic status ([1]; Example 1: patient hyperglycemic at presentation, 0.5 g/kg/day, from shortly after ester administration through end of treatment and beyond): euglycemic
Clinical status at follow-up ([1]; Example 3: 70 kg male boxer, 2.0 g/kg/day in three divided doses, standard oral diet): fully recovered
Glycemic status ([1]; Example 3: patient hyperglycemic at presentation, 2.0 g/kg/day, from shortly after ester administration through end of treatment): euglycemic
Adverse effects of the TBI the next day ([1]; Example 6: pre-injury serving, then 2.0 g/kg/day in three divided doses, the next day): no adverse effects
Symptoms on reexamination ([1]; Example 6: regimen maintained for 3 days instead of the recommended 6): no symptoms are seen
Glycemic status at examination after further TBI ([1]; Example 6: serving taken at 5 PM dinner before a 7 PM match (pre-injury dose), moderate TBI): euglycemic
Clinical status at end of treatment ([1]; Example 8: 30 kg child, 30 g twice daily, after an additional 3 days of treatment): fully recovered
Consciousness ([1]; Example 8: 30 kg child, 30 g twice daily, day 4 of continued treatment): regains consciousness
Clinical symptoms ([1]; Example 8: 30 kg child, moderate to severe TBI, unconscious, intubated, 30 g twice daily, standard enteral diet, after 7 days): show improvement, but are not yet in normal ranges
Long term effects of TBI ([2]; Example 9: moderate TBI, given with normal meals 2 or 3 times a day for one or two weeks, follow-up approximately 6 months after TBI, vs ketogenic diet or starvation): minimal, if not non-existent
Recovery from acute symptoms and long-term post-concussive syndrome symptoms vs those not receiving it ([2]; Example 10: military personnel, closed TBI, 0.5 mg/kg/day to 2.0 mg/kg/day in 2 or 3 divided doses for 7 days, started within 2 or 3 hours of injury): fare much better
Outcome vs treatment as in Example 10 ([2]; Example 11: mild-moderate closed TBI, given within minutes of suffering the TBI): fare even better
Recovery, acutely and longer term, vs administration only upon injury ([2]; Example 12: combat troops, morning prophylactic dose, TBI within 12 hours of administration, matched for injury severity): improved
